US8383162B2 (priority 2006, dated 2013)
“Also recorded” adds a separate entry of the source.

Legend:
rats [1] = details: rat, in vivo
rats [2] = details: rat, in vivo; remark: listed apart in the source
rats [3] = details: rat, in vivo; remark: listed apart in the source
N-type calcium channels = target: T1, N-type calcium channels (Homo sapiens, UniProt Q00975); assay type: cell-based, mammalian
T1 construct: expressed in transfected cells; host or cells: HEK cells

[4] = test system: HVA calcium channels subtypes (L, N, P/Q and R); assay type: cell-based, mammalian
[5] = test system: N-type calcium channels on neuronal pre-synaptic membrane; assay type: cell-based
[6] = test system: nerve ending spinal cord of rats; assay type: cell-based
synaptosomes [7] = assay type: cell-based
synaptosomes [8] = assay type: cell-based; remark: listed apart in the source
[9] = Acute, chronic and neurogenic pain after intrathecal bolus pretreatment; assay type: in vivo; details: pretreatment by intrathecal bolus injection
Description: In the heat pain model the antinociceptive effect of the Phα1B lasts 24 h.

rats [10] = details: rat, in vivo; remark: listed apart in the source
[11] = test system: central nervous system cells; assay: Acute toxicity and electrical excitability in central nervous system cells

T1 sequence (Q02641 whole entry): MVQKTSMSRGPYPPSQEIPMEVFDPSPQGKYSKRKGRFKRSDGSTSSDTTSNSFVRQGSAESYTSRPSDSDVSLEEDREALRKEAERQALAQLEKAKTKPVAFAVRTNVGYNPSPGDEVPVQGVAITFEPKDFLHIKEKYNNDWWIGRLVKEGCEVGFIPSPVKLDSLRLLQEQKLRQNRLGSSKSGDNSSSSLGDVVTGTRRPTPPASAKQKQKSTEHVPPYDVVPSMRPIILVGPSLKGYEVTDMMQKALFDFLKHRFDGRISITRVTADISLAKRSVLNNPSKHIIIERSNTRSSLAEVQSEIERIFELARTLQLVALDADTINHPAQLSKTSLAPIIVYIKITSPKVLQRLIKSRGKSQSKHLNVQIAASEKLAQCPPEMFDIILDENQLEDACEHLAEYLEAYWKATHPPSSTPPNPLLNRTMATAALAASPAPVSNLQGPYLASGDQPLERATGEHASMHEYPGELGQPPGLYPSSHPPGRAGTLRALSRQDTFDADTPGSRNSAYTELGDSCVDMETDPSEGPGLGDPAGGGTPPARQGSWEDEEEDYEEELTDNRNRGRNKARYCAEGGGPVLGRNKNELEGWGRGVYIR
T1 sequence (P54289 957-1103, further chain): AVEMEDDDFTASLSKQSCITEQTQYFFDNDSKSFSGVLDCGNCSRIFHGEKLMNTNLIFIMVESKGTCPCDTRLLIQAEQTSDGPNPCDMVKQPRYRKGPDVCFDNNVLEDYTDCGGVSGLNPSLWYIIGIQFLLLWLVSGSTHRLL
T1 sequence (P54289 25-956, further chain): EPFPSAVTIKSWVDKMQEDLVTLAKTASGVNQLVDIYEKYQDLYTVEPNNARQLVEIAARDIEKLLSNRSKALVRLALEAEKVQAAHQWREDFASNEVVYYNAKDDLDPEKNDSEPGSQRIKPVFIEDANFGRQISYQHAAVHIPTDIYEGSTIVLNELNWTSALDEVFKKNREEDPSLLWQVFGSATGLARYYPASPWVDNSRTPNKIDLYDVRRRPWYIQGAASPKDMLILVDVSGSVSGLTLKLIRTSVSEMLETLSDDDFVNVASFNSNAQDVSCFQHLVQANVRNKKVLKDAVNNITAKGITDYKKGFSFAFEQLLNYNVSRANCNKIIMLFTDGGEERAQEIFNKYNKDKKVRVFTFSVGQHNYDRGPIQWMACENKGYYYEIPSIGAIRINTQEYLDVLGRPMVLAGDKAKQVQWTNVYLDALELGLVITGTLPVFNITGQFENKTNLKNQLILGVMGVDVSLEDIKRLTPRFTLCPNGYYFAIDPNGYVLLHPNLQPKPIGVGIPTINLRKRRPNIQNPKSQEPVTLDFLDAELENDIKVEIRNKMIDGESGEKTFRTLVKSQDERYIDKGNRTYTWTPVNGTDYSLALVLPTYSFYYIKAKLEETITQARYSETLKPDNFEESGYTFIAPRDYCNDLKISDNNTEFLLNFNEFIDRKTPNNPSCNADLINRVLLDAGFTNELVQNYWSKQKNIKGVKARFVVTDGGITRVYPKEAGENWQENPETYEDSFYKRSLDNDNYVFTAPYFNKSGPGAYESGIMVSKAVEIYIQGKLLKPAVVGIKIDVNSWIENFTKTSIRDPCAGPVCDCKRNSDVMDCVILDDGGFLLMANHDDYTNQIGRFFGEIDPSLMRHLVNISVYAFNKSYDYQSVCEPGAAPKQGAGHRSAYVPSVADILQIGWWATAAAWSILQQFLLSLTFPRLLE
T1 sequence (Q00975 whole entry): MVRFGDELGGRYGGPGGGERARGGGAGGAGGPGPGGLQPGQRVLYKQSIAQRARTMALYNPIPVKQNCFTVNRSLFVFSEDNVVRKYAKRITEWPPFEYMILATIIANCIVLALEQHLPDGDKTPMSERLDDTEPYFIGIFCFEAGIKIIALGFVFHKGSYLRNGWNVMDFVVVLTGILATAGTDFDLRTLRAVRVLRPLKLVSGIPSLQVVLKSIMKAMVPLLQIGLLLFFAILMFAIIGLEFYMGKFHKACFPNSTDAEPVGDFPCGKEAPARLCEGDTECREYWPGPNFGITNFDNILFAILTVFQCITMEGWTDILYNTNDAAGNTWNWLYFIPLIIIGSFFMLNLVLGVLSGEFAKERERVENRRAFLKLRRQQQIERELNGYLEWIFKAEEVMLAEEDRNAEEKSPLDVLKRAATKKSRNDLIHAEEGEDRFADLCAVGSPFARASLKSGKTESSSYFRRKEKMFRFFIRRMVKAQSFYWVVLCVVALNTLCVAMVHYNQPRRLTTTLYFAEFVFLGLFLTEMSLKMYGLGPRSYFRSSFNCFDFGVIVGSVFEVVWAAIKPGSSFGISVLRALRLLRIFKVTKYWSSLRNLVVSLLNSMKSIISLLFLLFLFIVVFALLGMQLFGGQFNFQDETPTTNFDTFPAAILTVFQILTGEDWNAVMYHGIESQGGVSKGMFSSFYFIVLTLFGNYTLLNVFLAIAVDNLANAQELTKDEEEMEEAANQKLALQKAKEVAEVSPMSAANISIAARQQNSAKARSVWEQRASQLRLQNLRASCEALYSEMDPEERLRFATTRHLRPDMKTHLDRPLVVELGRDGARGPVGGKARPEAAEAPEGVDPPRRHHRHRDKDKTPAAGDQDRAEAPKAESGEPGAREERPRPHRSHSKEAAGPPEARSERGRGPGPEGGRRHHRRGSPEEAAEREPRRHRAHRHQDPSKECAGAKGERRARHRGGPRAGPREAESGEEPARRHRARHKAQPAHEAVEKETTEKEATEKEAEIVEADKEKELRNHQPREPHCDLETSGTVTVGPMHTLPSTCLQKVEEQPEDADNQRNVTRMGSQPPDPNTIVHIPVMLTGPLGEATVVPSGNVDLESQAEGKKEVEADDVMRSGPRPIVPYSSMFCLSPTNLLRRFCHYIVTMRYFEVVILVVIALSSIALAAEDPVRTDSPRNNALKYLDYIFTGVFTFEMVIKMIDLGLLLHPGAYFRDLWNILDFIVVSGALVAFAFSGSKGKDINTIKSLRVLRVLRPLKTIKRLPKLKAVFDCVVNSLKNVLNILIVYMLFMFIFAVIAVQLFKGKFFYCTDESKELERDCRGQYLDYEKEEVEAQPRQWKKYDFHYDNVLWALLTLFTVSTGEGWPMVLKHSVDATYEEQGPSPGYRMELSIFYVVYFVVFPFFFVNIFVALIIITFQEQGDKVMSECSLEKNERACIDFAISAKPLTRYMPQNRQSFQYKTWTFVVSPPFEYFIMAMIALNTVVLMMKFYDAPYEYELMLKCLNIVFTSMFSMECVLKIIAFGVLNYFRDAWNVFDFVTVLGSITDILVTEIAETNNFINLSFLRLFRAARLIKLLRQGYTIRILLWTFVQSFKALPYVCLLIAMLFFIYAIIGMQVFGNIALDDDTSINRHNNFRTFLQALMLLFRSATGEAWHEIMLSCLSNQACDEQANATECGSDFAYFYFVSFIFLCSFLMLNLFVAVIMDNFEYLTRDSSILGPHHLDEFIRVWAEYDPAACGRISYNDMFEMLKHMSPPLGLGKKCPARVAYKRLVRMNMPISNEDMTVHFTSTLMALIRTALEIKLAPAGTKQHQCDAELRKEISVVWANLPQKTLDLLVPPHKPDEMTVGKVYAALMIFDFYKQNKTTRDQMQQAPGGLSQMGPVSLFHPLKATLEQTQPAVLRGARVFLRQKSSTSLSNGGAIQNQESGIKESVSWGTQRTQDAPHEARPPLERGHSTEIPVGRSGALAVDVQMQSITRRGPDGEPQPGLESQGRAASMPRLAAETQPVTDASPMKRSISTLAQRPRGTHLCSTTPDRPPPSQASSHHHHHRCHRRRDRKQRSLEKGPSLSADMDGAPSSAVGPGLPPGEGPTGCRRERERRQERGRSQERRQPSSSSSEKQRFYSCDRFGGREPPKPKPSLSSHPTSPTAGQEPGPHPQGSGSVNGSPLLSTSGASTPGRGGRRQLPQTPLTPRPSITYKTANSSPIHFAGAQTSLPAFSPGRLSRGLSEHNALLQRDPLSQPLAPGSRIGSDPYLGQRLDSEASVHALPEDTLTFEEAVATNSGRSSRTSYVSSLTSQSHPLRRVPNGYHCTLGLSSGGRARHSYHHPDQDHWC

## Phα1B (ACIPRGEICTDDCECCGCDNQCYCPPGSSLGIFKCSCAHANKYFCNRKKEKCKA)
Rats [1]
  IC50 for the antinociceptive effect: 50.2 pmol
  antinociceptive effect (pain inhibition), in words: reduces the pain in rats; also recorded: more effective to inhibit pain; also recorded: higher than that induced by morphine
  dose at which maximal inhibition was obtained: 87.2 pmol
  duration of the antinociceptive effect: up to 24 hours
Rats [2]
  ED50 for inhibiting the inflammatory phase of formalin test, comparison: lower ED50 values
  antinociceptive effect on the inflammatory phase of formalin test: potent and longer antinociceptive effect
Rats [3]
  duration of antinociceptive effect in the heat pain model: 24 h
  efficacy against pain induced on the hot plate test: higher efficacy than conotoxins
  latency period on hot plate, time points with significant increase: increasing significantly the latency period to 3, 4, 5, 6 and 24 hours
N-type calcium channels
  reversibility of N-type calcium channel inhibition: reversibly inhibited
N-type calcium channels; read-out: IC50 for inhibition of N-type calcium channels
  IC50: 122 nM
[4]
  block of HVA calcium channel subtypes (L, N, P/Q and R): reversible block of all four HVA calcium channels subtypes
  selectivity among HVA Ca2+ channels: most potent and effective on N-type; also recorded: measurable preference for N-type channels
[5]
  effect on capsaicin-induced increase of [Ca2+]i: inhibition
[6]
  efficacy to inhibit capsaicin-induced release of glutamate: higher efficacy
Synaptosomes [7]
  effect on stimulated release of glutamate: blocks; also recorded: blocked the release of glutamate
Synaptosomes [8]
  effect on uptake of 45Ca2+ (calcium influx on depolarized terminal): blocks
[9]
  effect on acute, chronic and neurogenic pain: blocks the acute, cronic and neurogenic pain
Rats [10]
  factor by which antinociceptive doses are lower than doses associated with side-effects (DT50): around 15 times
[11]
  effect on electrical excitability of the neurons: does not affect
[11]; central nervous system cells
  acute toxicity to the cells tested: not acutely toxic

## CN1CC[C@]23c4c5ccc(O)c4O[C@H]2[C@@H](O)C=C[C@H]3[C@H]1C5 [morphine, reference compound]
Rats [3]
  duration of significant effect on hot plate: up to 5 hours
